# Measurements from publication PMC8480901 (PLoS ONE, 2021).
# Several values for one entry are separate records, joined by “and”; a condition that tells them apart may be missing. Equal entries are not always repeated.
# Tested on: human PBMCs
# Assay: LPS-induced cytokine and chemokine levels in human PBMC supernatant (Luminex, ELISA)
# Format: cell-based
# Conditions: for TNF-α [pg/mL], Mean / TNF-α [pg/mL], individual value / GM-CSF % reduction / GM-CSF [pg/mL], Mean / GM-CSF [pg/mL], individual value / IL-1β % reduction / IL-1β [pg/mL], Mean / IL-1β [pg/mL], individual value / IL-6 % reduction / IL-6 [pg/mL], Mean / IL-6 [pg/mL], individual value / IL-8 % reduction / IL-8 [pg/mL], Mean / IL-8 [pg/mL], individual value / TNF-α % reduction: LPS-stimulated human PBMC supernatant
smiles,measurement,setting,value
CC[C@H]1OC(=O)[C@H](C)[C@@H](O[C@H]2C[C@@](C)(OC)[C@@H](O)[C@H](C)O2)[C@H](C)[C@@H](O[C@@H]2O[C@H](C)C[C@H](N(C)C)[C@H]2O)[C@](C)(O)C[C@@H](C)CN(C)[C@H](C)[C@@H](O)[C@]1(C)O [Azithromycin],"TNF-α [pg/mL], Mean",0.03 µM,11102 pg/mL
same,"TNF-α [pg/mL], individual value",0.03 µM,10517 pg/mL and 11687 pg/mL
same,GM-CSF % reduction,0.1 µM,8%
same,"GM-CSF [pg/mL], Mean",0.1 µM,606 pg/mL
same,"GM-CSF [pg/mL], individual value",0.1 µM,616 pg/mL and 597 pg/mL
same,IL-1β % reduction,0.1 µM,7%
same,"IL-1β [pg/mL], Mean",0.1 µM,11909 pg/mL
same,"IL-1β [pg/mL], individual value",0.1 µM,12184 pg/mL and 11633 pg/mL
same,IL-6 % reduction,0.1 µM,10%
same,"IL-6 [pg/mL], Mean",0.1 µM,31536 pg/mL
same,"IL-6 [pg/mL], individual value",0.1 µM,30929 pg/mL and 32144 pg/mL
same,IL-8 % reduction,0.1 µM,-3.72%
same,"IL-8 [pg/mL], Mean",0.1 µM,3056 pg/mL
same,"IL-8 [pg/mL], individual value",0.1 µM,3040 pg/mL and 3071 pg/mL
same,TNF-α % reduction,0.1 µM,8%
same,"TNF-α [pg/mL], Mean",0.1 µM,8220 pg/mL
same,"TNF-α [pg/mL], individual value",0.1 µM,7335 pg/mL and 9106 pg/mL
same,GM-CSF % reduction,0.3 µM,3.39%
same,"GM-CSF [pg/mL], Mean",0.3 µM,635 pg/mL
same,"GM-CSF [pg/mL], individual value",0.3 µM,650 pg/mL and 620 pg/mL
same,IL-1β % reduction,0.3 µM,5%
same,"IL-1β [pg/mL], Mean",0.3 µM,12146 pg/mL
same,"IL-1β [pg/mL], individual value",0.3 µM,12820 pg/mL and 11473 pg/mL
same,IL-6 % reduction,0.3 µM,8%
same,"IL-6 [pg/mL], Mean",0.3 µM,32119 pg/mL
same,"IL-6 [pg/mL], individual value",0.3 µM,32538 pg/mL and 31700 pg/mL
same,IL-8 % reduction,0.3 µM,-0.427%
same,"IL-8 [pg/mL], Mean",0.3 µM,3002 pg/mL
same,"IL-8 [pg/mL], individual value",0.3 µM,2940 pg/mL and 3064 pg/mL
same,TNF-α % reduction,0.3 µM,8%
same,"TNF-α [pg/mL], Mean",0.3 µM,8210 pg/mL
same,"TNF-α [pg/mL], individual value",0.3 µM,7975 pg/mL and 8445 pg/mL
same,GM-CSF % reduction,1 µM,6.38%
same,"GM-CSF [pg/mL], Mean",1 µM,616 pg/mL
same,"GM-CSF [pg/mL], individual value",1 µM,634 pg/mL and 597 pg/mL
same,IL-1β % reduction,1 µM,4%
same,"IL-1β [pg/mL], Mean",1 µM,12252 pg/mL
same,"IL-1β [pg/mL], individual value",1 µM,12213 pg/mL and 12291 pg/mL
same,IL-6 % reduction,1 µM,-4.52%
same,"IL-6 [pg/mL], Mean",1 µM,36486 pg/mL
same,"IL-6 [pg/mL], individual value",1 µM,36508 pg/mL and 36463 pg/mL
same,IL-8 % reduction,1 µM,0.166%
same,"IL-8 [pg/mL], Mean",1 µM,2992 pg/mL
same,"IL-8 [pg/mL], individual value",1 µM,2945 pg/mL and 3040 pg/mL
same,TNF-α % reduction,1 µM,-33%
same,"TNF-α [pg/mL], Mean",1 µM,11913 pg/mL
same,"TNF-α [pg/mL], individual value",1 µM,11577 pg/mL and 12250 pg/mL
same,GM-CSF % reduction,3 µM,-8.5%
same,"GM-CSF [pg/mL], Mean",3 µM,713 pg/mL
same,"GM-CSF [pg/mL], individual value",3 µM,735 pg/mL and 692 pg/mL
same,IL-1β % reduction,3 µM,-0.234%
same,"IL-1β [pg/mL], Mean",3 µM,12815 pg/mL
same,"IL-1β [pg/mL], individual value",3 µM,12810 pg/mL and 12820 pg/mL
same,IL-6 % reduction,3 µM,4%
same,"IL-6 [pg/mL], Mean",3 µM,33458 pg/mL
same,"IL-6 [pg/mL], individual value",3 µM,33827 pg/mL and 33090 pg/mL
same,IL-8 % reduction,3 µM,-3.25%
same,"IL-8 [pg/mL], Mean",3 µM,3048 pg/mL
same,"IL-8 [pg/mL], individual value",3 µM,3040 pg/mL and 3056 pg/mL
same,TNF-α % reduction,3 µM,-13%
same,"TNF-α [pg/mL], Mean",3 µM,10076 pg/mL
same,"TNF-α [pg/mL], individual value",3 µM,10741 pg/mL and 9410 pg/mL
same,GM-CSF % reduction,10 µM,-18%
same,"GM-CSF [pg/mL], Mean",10 µM,778 pg/mL
same,"GM-CSF [pg/mL], individual value",10 µM,790 pg/mL and 767 pg/mL
same,IL-1β % reduction,10 µM,6%
same,"IL-1β [pg/mL], Mean",10 µM,12046 pg/mL
same,"IL-1β [pg/mL], individual value",10 µM,12362 pg/mL and 11731 pg/mL
same,IL-6 % reduction,10 µM,4.69%
same,"IL-6 [pg/mL], Mean",10 µM,33270 pg/mL
same,"IL-6 [pg/mL], individual value",10 µM,35180 pg/mL and 31360 pg/mL
same,IL-8 % reduction,10 µM,7.45%
same,"IL-8 [pg/mL], Mean",10 µM,2874 pg/mL
same,"IL-8 [pg/mL], individual value",10 µM,2884 pg/mL and 2864 pg/mL
same,TNF-α % reduction,10 µM,-22%
same,"TNF-α [pg/mL], Mean",10 µM,10907 pg/mL
same,"TNF-α [pg/mL], individual value",10 µM,11897 pg/mL and 9917 pg/mL
same,GM-CSF % reduction,30 µM,-64%
same,"GM-CSF [pg/mL], Mean",30 µM,1076 pg/mL
same,"GM-CSF [pg/mL], individual value",30 µM,1120 pg/mL and 1032 pg/mL
same,IL-1β % reduction,30 µM,22%
same,"IL-1β [pg/mL], Mean",30 µM,10027 pg/mL
same,"IL-1β [pg/mL], individual value",30 µM,10517 pg/mL and 9538 pg/mL
same,IL-6 % reduction,30 µM,2.66%
same,"IL-6 [pg/mL], Mean",30 µM,33980 pg/mL
same,"IL-6 [pg/mL], individual value",30 µM,33792 pg/mL and 34168 pg/mL
same,IL-8 % reduction,30 µM,5%
same,"IL-8 [pg/mL], Mean",30 µM,2917 pg/mL
same,"IL-8 [pg/mL], individual value",30 µM,2925 pg/mL and 2908 pg/mL
same,TNF-α % reduction,30 µM,-21%
same,"TNF-α [pg/mL], Mean",30 µM,10839 pg/mL
same,"TNF-α [pg/mL], individual value",30 µM,10668 pg/mL and 11009 pg/mL
same,GM-CSF % reduction,100 µM,-161%
same,"GM-CSF [pg/mL], Mean",100 µM,1715 pg/mL
same,"GM-CSF [pg/mL], individual value",100 µM,1713 pg/mL and 1717 pg/mL
same,IL-1β % reduction,100 µM,51%
same,"IL-1β [pg/mL], Mean",100 µM,6242 pg/mL
same,"IL-1β [pg/mL], individual value",100 µM,5956 pg/mL and 6528 pg/mL
same,IL-6 % reduction,100 µM,23%
same,"IL-6 [pg/mL], Mean",100 µM,27053 pg/mL
same,"IL-6 [pg/mL], individual value",100 µM,26301 pg/mL and 27804 pg/mL
same,"IL-8 [pg/mL], Mean",100 µM,2975 pg/mL
same,"IL-8 [pg/mL], individual value",100 µM,2977 pg/mL and 2972 pg/mL
same,TNF-α % reduction,100 µM,17%
same,"TNF-α [pg/mL], Mean",100 µM,7409 pg/mL
same,"TNF-α [pg/mL], individual value",100 µM,6229 pg/mL and 8589 pg/mL
same,"levels of the measured LPS-induced cytokines, chemokines, or MMP-9 in supernatants","human PBMCs, concentrations tested (100 μM not shown)",little to no reduction
